Assay results published in article PMC8997399, “High-Throughput Screening to Identify Inhibitors of Plasmodium falciparum Importin α” (Cells, 2022).
Where two headings read alike, the source gives them in different places.

Tests used:
MmIMPα/β heterodimer = molecular target: T1, MmIMPα/β heterodimer (Mus musculus, UniProt P52293); assay: AlphaScreen binding assay, MmIMPα/β:T-ag-NLS-GFP interaction; conditions: for inhibition at 10 µM: read-out: % Inhibition of IMPα-NLS Interaction MmIMPα/β
T1 construct: GST; made in house
Description: (§1) PfIMPα, TgIMPα, Mus musculus IMPα (MmIMPα), ΔIBBMmIMPα, and β1 (MmIMPβ) GST fusion proteins were expressed and purified essentially as previously. His-tagged TGS1-NLS-GFP, PfIMPα and TgIMPα proteins were purified using Ni^2+-affinity chromatography as described. His-tagged SV40 T-ag-NLS-GFP was purified as previously. Biotinylation of GST-tagged proteins was carried out using the Sulfo-NHS-Biotin reagent (Pierce, Rockford, IL, USA) as described previously. AlphaScreen binding assay was performed as described previously.
(§2) Plates were read for an Alphascreen signal on an Envision plate reader (PerkinElmer, Waltham, MA, USA), with signals from the negative control wells (no bait control) on each plate subtracted.

MmΔIBBIMPα = molecular target: T2, MmΔIBBIMPα (Mus musculus, UniProt P52293); assay: AlphaScreen binding assay, MmΔIBBIMPα:T-ag-NLS-GFP interaction; conditions: for inhibition at 10 µM: read-out: % Inhibition of IMPα-NLS Interaction MmΔIBBIMPα
T2 construct: made in house
Description: as §1, §2

PfIMPα = PfIMPα (Plasmodium falciparum, UniProt Q8IAW0); assay: biochemical; format: binding; conditions: for inhibition at 10 µM: read-out: % Inhibition of IMPα-NLS Interaction PfIMPα
Description: as §1
Then, 10 nM biotinylated PfIMPα and 60 nM TGS1-NLS-GFP were used with library compounds, screened at 10 µM final concentration.
Briefly, 5 μL of each compound in DMSO was added to quadruplicate wells of a 384-well plate along with appropriate controls including DMSO alone and ivermectin, as previously, using a JANUS Modular Dispense Technology (MDT) robotic system (PerkinElmer, Waltham, MA, USA). This was followed by successive 7 and 5 μL additions, respectively, of PfIMPα (10 nM) and TGS1-NLS-GFP (60 nM) or PBS (“no bait” control), respectively, and 30 min incubation at room temperature. […] Then, 4 µL of the AlphaScreen donor beads (1/40 dilution of GSH. acceptor beads in PBS) was finally added to each well using a Multidrop, followed by a further incubation of 2 h at room temperature in the dark.
as §2

TgIMPα = TgIMPα (Toxoplasma gondii, UniProt A0A125YID0); assay: biochemical; format: binding; conditions: for inhibition at 10 µM: read-out: % Inhibition of IMPα-NLS Interaction TgIMPα
Description: as §1, §2

T. gondii tachyzoites = conditions: cited from earlier work
P. falciparum 3D7 strain = assay: P. falciparum growth inhibition assay (HRP2 sandwich ELISA); format: cell-based, Plasmodium falciparum; conditions: Plasmodium falciparum, 3D7, 72 h
Description: Red blood cells (RBCs) were derived from blood from volunteers (approval from the Institute Ethics Committee, IIT Bombay, Mumbai, India) by density gradient centrifugation. Aliquots of cryopreserved P. falciparum 3D7 strain in human red blood cells (RBCs—3% hematocrit, <5% parasitemia) were thawed and cultured using RPMI (Roswell Park Memorial Institute) 1640 medium supplemented with 0.5% Albumax (Gibco^TM, Waltham, MA, USA), 50 mg/L hypoxanthine (Sigma-Aldrich, St Louis, MO, USA), 2 g/L D-glucose (Sigma-Aldrich, St Louis, MO, USA), 2 g/L sodium bicarbonate (Sigma-Aldrich, St Louis, MO, USA), and 56 mg/L of gentamicin (Abbott, Chicago, IL, USA) at 37 °C in 5% CO2 in a humidified incubator according to the standard procedures; suspension cultures were maintained at 3% hematocrit and <5% parasitemia, by adding a fresh medium daily and a regular addition of fresh human RBCs.
Before growth inhibition assays, cultures were synchronized using 5% D-sorbitol (Sigma-Aldrich, St Louis, MO, USA) predominantly to obtain the ring stage of the P. falciparum life cycle.
Growth assays in the absence and presence of inhibitors were performed using the Histidine–Rich Protein 2 (HRP2) sandwich horseradish peroxidase-linked immunosorbent assay to measure HRP2 protein levels as an indicator of growth. Briefly, 25 µL of compound was added to 96-well microculture plates (Eppendorf, Hamburg, Germany) of 0.25% (with fresh RBCs), and added at a hematocrit of 3%. The plates were then incubated for 72 h at 37 °C in a humidified incubator, sparged with 5% CO2. 72 h later, the plates were subjected to freeze–thaw to achieve hemolysis, and samples diluted 200-fold in H2O in transferring to another plate. A day prior to analysis, 96-well ELISA plates (Sigma-Aldrich, St Louis, MO, USA) were coated overnight at 4 °C with 100 µL of 1 μg/mL IgM capture antibody MPFM-55A (Immunology Consultants Laboratory, Portland, OR, USA) specific for P. falciparum HRP2. After blocking for 2 h at room temperature with 2% BSA in PBS, diluted samples were added to the wells, followed by incubation for 2 h, then the plates were washed three times with 0.05% Tween 20 in PBS. Next, 100 µL of the secondary antibody MPFG-55P (Immunology Consultants Laboratory, Portland, OR, USA) conjugated with horseradish peroxidase (0.25 μg/mL in PBS with 2% BSA) was then added to each well, and the plates incubated for 1 h at room temperature, prior to being washed three times, and 100 µL 3,3′, 5,5′ tetramethylbenzidine substrate (BD Biosciences, San Jose, CA, USA) being added. After 10 min incubation in the dark, 50 µL of 1 M H2SO4 was added and the absorbance was read at 450 nm on a Multiscan™ FC Microplate Spectrophotometer (Thermo Fisher Scientific, Waltham, MA, USA).

[1] = MTT assay for host cell cytotoxicity; format: cell-based, human; conditions: human, HFF cells; MTT assay, 48 h; mean ± SD (n = 2)
Description: The MTT assay was used to measure the cytotoxicity of the small molecules against the HFF cells as described. Briefly, freshly confluent HFF cells in a 96-well culture plate were treated with increasing concentrations of compounds for 48 h, prior to the MTT assay.

[2] = test system: T. gondii RH strain expressing the luciferase reporter (RH-Fluc); assay: T. gondii tachyzoite growth inhibition assay (RH-Fluc luciferase); format: cell-based, Toxoplasma gondii; conditions: Toxoplasma gondii
Source text: T. gondii RH strain expressing the luciferase reporter (RH-Fluc) was derived to assess the effect of the inhibitors on growth. Briefly, plasmid pCTG-EGFP [42] was modified by replacing the coding sequence of EGFP with that of the firefly luciferase reporter, using restriction enzymes BglII and PstI (Thermo Fisher Scientific, Waltham, MA, USA). The resultant plasmid, pCTG-Fluc, expressing firefly luciferase constitutively under the control of the T. gondii TubulinA promoter, was electroporated into the T. gondii RH strain [43, 44] using a Bio-Rad GenePulser Xcell system (1500 V, 50 Ω and 25 µF) along with restriction enzyme NotI to initiate RE-Mediated Integration (REMI) of the linearized plasmid into the genome. The resultant stable T. gondii line expressing the luciferase reporter was selected for resistance to 20 µM chloramphenicol (encoded by the plasmid pCTG), and dilution cloning was performed to ultimately identify the clone (RH-Fluc) with the highest luciferase activity (c. 4 × 10^7 RLU from 10^7 parasites) used for growth assays. T. gondii tachyzoites were maintained and cultured at 37 °C in 5% CO2 in a humidified incubator in primary human foreskin fibroblasts (HFF, ATCC); HFF cells were maintained in Dulbecco’s modified Eagle medium (DMEM) (Gibco^TM, Waltham, MA, USA) supplemented with 3.7 g/L sodium bicarbonate and 2.38 g/L HEPES, 10% Cosmic Calf serum (Hyclone^TM, Logan, UT, USA) and 20 mg/L gentamicin [47, 48].
Growth inhibition was assessed by luminescence measurements as described. Briefly, 100 μL of culture medium with or without inhibitors was added to confluent monolayers of HFF cells grown in 96-well treated culture plates (Eppendorf, Hamburg, Germany), followed by 100 µL of DMEM containing 5000 parasites. After 48 h, 150 µL of the culture media was discarded from each well without aspirating any parasites, and 10 µL lysis buffer was added to lyse the parasites, followed by 50 μL of 2× luciferase assay reagent (Promega, Madison, WI, USA). Luminescence was measured directly for 10 s using a Varioskan™ LUX multimode microplate reader (Thermo Fisher Scientific, Waltham, MA, USA).

[3] = molecular target: His-tagged SV40 T-ag-NLS-GFP (NLS of simian virus SV40 large tumor antigen fused to GFP) (Simian Virus 40); assay: AlphaScreen or HTRF
[4] = molecular target: His-tagged TGS1-NLS-GFP (NLS of P. falciparum trimethyl guanosine synthase 1 fused to GFP) (Plasmodium falciparum); assay: AlphaScreen or HTRF; Kd determination without inhibitors; His-tagged NLS-GFP (30 nM) and biotinylated-GST-IMPα (5 nM) as printed; pooled from three independent experiments
[5] = compounds at 10 μM, PfIMPα (10 nM):TGS1-NLS-GFP (60 nM), relative to 1% DMSO control, quadruplicate
[6] = compounds at 10 μM, MmIMPα/β (5 nM):T-ag-NLS-GFP (30 nM), relative to 1% DMSO control
[7] = compounds at 10 μM, TgIMPα (5 nM):T-ag-NLS-GFP (30 nM), relative to 1% DMSO control
[8] = compounds at 10 μM, ΔIBBMmIMPα (5 nM):T-ag-NLS-GFP (30 nM), relative to 1% DMSO control

CNC[C@H](O)c1ccc(O)c(O)c1.Cl (racemic) [(±)-Epinephrine HCl]
% Inhibition of IMPα-NLS Interaction MmIMPα/β (MmIMPα/β heterodimer): 95%
% Inhibition of IMPα-NLS Interaction MmIMPα/β (MmIMPα/β heterodimer; listed as (±)-epinephrine HCl): ≥ 95%
% Inhibition of IMPα-NLS Interaction MmΔIBBIMPα (MmΔIBBIMPα): 35%
% Inhibition of IMPα-NLS Interaction MmΔIBBIMPα (MmΔIBBIMPα; listed as (±)-epinephrine HCl): < 55%

Cl.NCC(O)c1cc(O)c(O)cc1F (stereo not drawn) [6-Fluoronorepinephrine HCl]
% Inhibition of IMPα-NLS Interaction PfIMPα (PfIMPα; [5]): 77%
% Inhibition of IMPα-NLS Interaction MmIMPα/β (MmIMPα/β heterodimer; [6]): 51%
% Inhibition of IMPα-NLS Interaction TgIMPα (TgIMPα; [7]): 67%
% Inhibition of IMPα-NLS Interaction MmΔIBBIMPα (MmΔIBBIMPα; [8]): 60%

CNC[C@H](O)c1ccc(O)c(O)c1 [(−)-Epinephrine bitartrate]
inhibition at 10 µM (PfIMPα): 85%
inhibition at 10 µM (MmIMPα/β heterodimer; [6]): 94%
inhibition at 10 µM (TgIMPα): 23%
inhibition at 10 µM (MmΔIBBIMPα; [8]): 34%

CC[n+]1c(/C=C/C=C2/N(C)c3ccccc3C2(C)C)sc2ccccc21.[I-] [AC-93253 iodide]
% Inhibition of IMPα-NLS Interaction PfIMPα (PfIMPα; [5]): 82%
% Inhibition of IMPα-NLS Interaction MmIMPα/β (MmIMPα/β heterodimer; [6]): 62%
% Inhibition of IMPα-NLS Interaction TgIMPα (TgIMPα; [7]): 72%
% Inhibition of IMPα-NLS Interaction MmΔIBBIMPα (MmΔIBBIMPα; [8]): 67%

Cc1ccc(S(=O)(=O)/C=C/C#N)cc1 [Bay 11-7082]
inhibition of growth of T. gondii tachyzoites (T. gondii tachyzoites): inhibit the growth

COc1ccc2c(c[n+](C)c3c4cc5c(cc4ccc23)OCO5)c1OC.[Cl-] [Chelerythrine Cl]
% Inhibition of IMPα-NLS Interaction PfIMPα (PfIMPα; [5]): 81%
% Inhibition of IMPα-NLS Interaction MmIMPα/β (MmIMPα/β heterodimer; [6]): 94%
% Inhibition of IMPα-NLS Interaction TgIMPα (TgIMPα; [7]): 67%
% Inhibition of IMPα-NLS Interaction MmΔIBBIMPα (MmΔIBBIMPα; [8]): 88%

C[C@H]1[C@@H](O)O[C@@H]2O[C@@]3(C)CC[C@H]4[C@H](C)CC[C@@H]1[C@@]24OO3 [DHA, dihydroartemisinin]
IC50 (P. falciparum 3D7 strain; parasites in culture, pooled, mean ± SD (n = 3)): 1 nM
IC50 (P. falciparum 3D7 strain; single typical experiment (Figure 6)): 0.7 nM

O=c1ccc2ccc(O)c(O)c2o1 [Daphnetin]
inhibition at 10 µM (PfIMPα; [5]): 81%
inhibition at 10 µM (MmIMPα/β heterodimer; [6]): 83%
inhibition at 10 µM (TgIMPα; [7]): 70%
inhibition at 10 µM (MmΔIBBIMPα; [8]): 81%

O=C(Nc1ccc(N2CCNCC2)nc1)c1oc(-c2ccccc2)nc1C(F)(F)F [MMV024937]
% Inhibition of IMPα-NLS Interaction PfIMPα (PfIMPα; [5]): 73%
% Inhibition of IMPα-NLS Interaction MmIMPα/β (MmIMPα/β heterodimer; [6]): 24%
% Inhibition of IMPα-NLS Interaction TgIMPα (TgIMPα; [7]): 26%
% Inhibition of IMPα-NLS Interaction MmΔIBBIMPα (MmΔIBBIMPα; [8]): 70%

CC(C)(CN)c1nc(-c2ccc(Cl)c(O)c2)c(-c2ccnc(N)n2)[nH]1 [MMV030734]
% Inhibition of IMPα-NLS Interaction MmIMPα/β (MmIMPα/β heterodimer; [6]): 68%
% Inhibition of IMPα-NLS Interaction TgIMPα (TgIMPα; [7]): 44%
% Inhibition of IMPα-NLS Interaction MmΔIBBIMPα (MmΔIBBIMPα; [8]): 43%

O=C(Nc1nc(-c2ccccn2)cs1)c1cncn1-c1ccccc1 [MMV676512]
% Inhibition of IMPα-NLS Interaction TgIMPα (TgIMPα; [7]): 48%
% Inhibition of IMPα-NLS Interaction MmΔIBBIMPα (MmΔIBBIMPα; [8]): 54%

CCc1nc(N)nc(N)c1-c1ccc(Cl)cc1 [pyrimethamine]
CC50 at 48 h [1]: > 10000 nM
IC50 ([2]; Table S1, mean ± SEM (n = 3), read-out: IC50 T. gondii tachyzoites): 500 ± 100 nM
IC50 ([2]; parasites in culture, 48 h, pooled, mean ± SD (n = 3) (Table 3), read-out: IC50 T. gondii): 460 ± 140 nM

Mus musculus importin α deleted for the autoinhibitory IBB domain (MmΔIBBIMPα), biotinylated GST fusion protein (domain or fragment)
Kd [3]: 2.6 nM

Plasmodium falciparum importin α (PfIMPα), biotinylated GST fusion protein (natural protein)
Kd [4]: 6.5 nM

Toxoplasma gondii importin α (TgIMPα), biotinylated GST fusion protein (natural protein)
Kd [3]: 3.5 nM
